In patent US20260167638A1, “PHARMACEUTICAL COMPOUND, SALTS THEREOF, FORMULATIONS THEREOF, AND METHODS OF MAKING AND USING SAME” (Genentech, Inc., priority 2018, published 2026):
Values after ≈ are worked out from the molar mass of the structure shown. Values joined by “and” are separate entries in the source; they are usually repeats but may differ in a detail not shown here. Equal values may be shown once. Values belong to the compound of their own block, whether it stands above or below them.

Tests used:
[1] = Experimental determination of the pKa; type: physicochemical
[2] = Dissolution and precipitation in pH 6.5 phosphate buffer at 37° C. containing HPMC; type: physicochemical; conditions: aqueous buffer
Excerpt: The inclusion of HPMC in the tablet of Example 16 was to maintain the supersaturation of Compound I API after its mono-tosylate salt dissolves. […]

[3] = Solubility in pure water at 25° C. with PXRD of solid residues; type: physicochemical; conditions: for pH (24 hrs) / pH (1 hr): pH of solubility sample; for pH (24 hrs) / pH (1 hr) / S 24 hrs / S 1 hr: pure water, 25° C.; for pH (1 hr) / S 1 hr: one hour; for S 24 hrs: 24 hours equilibration
Procedure: Using a similar strategy as described above, these salts were prepared by evaporation from a solution of free base and acid in a solvent (e.g., methanol-dichloromethane 1:1, ethyl acetate-dichloromethane 1:2, isopropanol, and the like). If necessary, an amorphous salt produced in this way was crystallized by stirring the amorphous material in an appropriate solvent (e.g., ethyl acetate, acetonitrile, and the like).

[4] = Example 21 crossover pharmacokinetics of mono-tosylate and di-tosylate tablets in fasted dogs; type: in vivo, beagle dogs; conditions: for Individual plasma concentration of Compound I: individual dogs 1-5; for Individual plasma concentration of Compound I / Mean plasma concentration of Compound I: phase 2, di-tosylate tablet 200 mg PO; for AUC0-last / AUC0-rt / Cmax / tmax: Example 21, fasted dogs, 200 mg tablet PO
Procedure: Pharmacokinetics parameters of formulations of Compound I and its salts in dogs were determined by orally administering a test formulation tablet at 200 mg of active (Compound I or salt) per dog.
Blood samples were taken at various times after administration, plasma prepared, and submitted to analysis for parent drug using a qualified LC-MS-MS assay. Pharmacokinetics parameters derived from the plasma analytical data were determined using non-compartmental analysis.
Pharmacokinetics of Compound I were determined in pentagastrin-pretreated male beagle dogs following a single oral (PO) administration at 200 mg/tablet per dog in a 2-phase crossover designed study, with a washout period of at least 7 days in between each phase. Five male, non-naive, purebred beagle dogs were used in each phase of the 2-phase crossover study. All dogs were pretreated with pentagastrin (6 μg/kg intramuscular administrations) approximately 30 minutes before test article administration.
Two tablet formulations (mono-tosylate and di-tosylate, as described above) of test article were assessed. Animals were fasted overnight prior to PO dosing through approximately 4 hours post-dose. The tablet was administered orally, followed by approximately 10 mL of reverse osmosis water. Phase 1 animals were given tablets containing Compound I mono-tosylate, and phase 2 animals were given tablets containing Compound I di-tosylate salt. Blood samples were collected pre-dose and at 0.25, 0.5. 1. 2, 4, 8, 24, 36, and 48 hours after the oral dose. Plasma was harvested, and the concentration of Compound I in each plasma sample was determined by an LC/MS/MS assay. The assay lower limit of quantitation was 20 ng/mL for Compound I. Mean Compound I concentrations measured in plasma were used to construct semi-logarithmic plasma concentration-time curves (FIG. 1). Pharmacokinetic analysis was performed using non-compartmental methods.

[5] = Water sorption / dynamic vapor sorption (DVS) hygroscopicity; type: physicochemical
Procedure: The pKa value of Compound I free base was calculated (ACD Labs pKa DB, v10.0) as 2.12±0.33. Therefore, Compound I free base was considered as a very weak base that could be protonated by strong acids. […] A sample of Compound I free base was analyzed by powder x-ray diffraction and found to be crystalline without any readily detectable amorphous content. […] (onset temperature).
The maximum water uptake for the amorphous salt was about 40% whereas the maximum water uptake for the crystalline di-hydrochloride salt was higher, with about 54% uptake.
The hygroscopic nature of the besylate salt was examined by dynamic vapor sorption analysis (DVS). […] Below 80% relative humidity not much water was adsorbed.

[6] = Thermal stability of salt; type: physicochemical
Excerpt: It was produced in a crystalline form that was easy to dry, as the residual solvent content of the obtained sample was low. The particle size distribution and crystal habits found were acceptable.

[7] = Table 5: free base and crystalline salt forms
[8] = Table 4: free base and amorphous salt forms

pKa [1]: 2.5 | solubility [2]: ~80 µg/mL (≈ 205 µM) | Solubility (24 hours) [3, 7]: 57 µg/mL | solubility at 24 h ([3]; water, 25 °C, water, thermodynamic from solid, Table 4: free base and amorphous salt forms): 57 µg/mL
Compound: Cn1cc(-c2cn(-c3ccc(OC(F)(F)F)cc3)c(=O)c3ncn(C)c23)cn1 [Compound I, 1-methyl-7-(1-methyl-1H-pyrazol-4-yl)-5-(4-(trifluoromethoxy)phenyl)-1,5-dihydro-4H-imidazo[4,5-c]pyridin-4-one]

Solubility (24 hours) [3, 7]: 480 µg/mL | pH (24 hrs) [3]: 1.6 | pH (1 hr) [3]: 1.6 | S 24 hrs [3]: 0.48 mg/mL | S 1 hr [3]: 0.54 mg/mL
Compound: Br.Br.Cn1cc(-c2cn(-c3ccc(OC(F)(F)F)cc3)c(=O)c3ncn(C)c23)cn1 [di-HBr crystalline]

Solubility (24 hours) [3, 7]: 760 µg/mL | pH (24 hrs) [3]: 1.5 | pH (1 hr) [3]: 1.3 | S 24 hrs [3]: 0.76 mg/mL | S 1 hr [3]: 1.14 mg/mL
Compound: Cl.Cl.Cn1cc(-c2cn(-c3ccc(OC(F)(F)F)cc3)c(=O)c3ncn(C)c23)cn1 [di-HCl crystalline]

Solubility (24 hours) [3, 8]: 620 µg/mL | pH (24 hrs) [3]: 1.6 | S 24 hrs [3]: 0.62 mg/mL
Compound: Br.Cn1cc(-c2cn(-c3ccc(OC(F)(F)F)cc3)c(=O)c3ncn(C)c23)cn1 [mono-HBr amorphous]

pH (24 hrs) [3]: 1.9 | S 24 hrs [3]: 0.31 mg/mL
Compound: Br.Cn1cc(-c2cn(-c3ccc(OC(F)(F)F)cc3)c(=O)c3ncn(C)c23)cn1 [mono-HBr crystalline]

Solubility (24 hours) [3, 8]: 700 µg/mL | pH (24 hrs) [3]: 1.6 | S 24 hrs [3]: 0.70 mg/mL
Compound: Cl.Cn1cc(-c2cn(-c3ccc(OC(F)(F)F)cc3)c(=O)c3ncn(C)c23)cn1 [mono-HCl amorphous]

pH (24 hrs) [3]: 1.6 | S 24 hrs [3]: 0.42 mg/mL
Compound: Cl.Cn1cc(-c2cn(-c3ccc(OC(F)(F)F)cc3)c(=O)c3ncn(C)c23)cn1 [mono-HCl crystalline]

pH (24 hrs) [3]: 1.8 | pH (1 hr) [3]: 1.8 | S 24 hrs [3]: 0.38 mg/mL | S 1 hr [3]: 0.42 mg/mL
Compound: Cn1cc(-c2cn(-c3ccc(OC(F)(F)F)cc3)c(=O)c3ncn(C)c23)cn1.O=[N+]([O-])O [mono-nitrate crystalline]

The remaining lines, values behind:

Compound: Cc1ccc(S(=O)(=O)O)cc1.Cc1ccc(S(=O)(=O)O)cc1.Cn1cc(-c2cn(-c3ccc(OC(F)(F)F)cc3)c(=O)c3ncn(C)c23)cn1 [Di-tosylate]
Individual plasma concentration of Compound I ([4]; 0.25 hours, fasted dogs, listed as Compound I di-tosylate salt): 1020 ng/mL and 146 ng/mL and 309 ng/mL and 29.1 ng/mL and 670 ng/mL | Mean plasma concentration of Compound I ([4]; 0.25 hours, mean, fasted dogs): 536 ng/mL | Individual plasma concentration of Compound I ([4]; 0.5 hours, fasted dogs, listed as Compound I di-tosylate salt): 7120 ng/mL and 1820 ng/mL and 3500 ng/mL and 636 ng/mL and 2610 ng/mL | Mean plasma concentration of Compound I ([4]; 0.5 hours, mean, fasted dogs): 3760 ng/mL | Individual plasma concentration of Compound I ([4]; 1 hour, fasted dogs, listed as Compound I di-tosylate salt): 8040 ng/mL and 6510 ng/mL and 9340 ng/mL and 1600 ng/mL and 6140 ng/mL | Mean plasma concentration of Compound I ([4]; 1 hour, mean, fasted dogs): 7510 ng/mL | Individual plasma concentration of Compound I ([4]; 2 hours, fasted dogs, listed as Compound I di-tosylate salt): 8810 ng/mL and 11200 ng/mL and 13400 ng/mL and 1580 ng/mL and 8110 ng/mL | Mean plasma concentration of Compound I ([4]; 2 hours, mean, fasted dogs): 10400 ng/mL | Individual plasma concentration of Compound I ([4]; 4 hours, fasted dogs, listed as Compound I di-tosylate salt): 6820 ng/mL and 10500 ng/mL and 13100 ng/mL and 1040 ng/mL and 6440 ng/mL | Mean plasma concentration of Compound I ([4]; 4 hours, mean, fasted dogs): 9220 ng/mL | Individual plasma concentration of Compound I ([4]; 8 hours, fasted dogs, listed as Compound I di-tosylate salt): 2700 ng/mL and 5620 ng/mL and 5860 ng/mL and 368 ng/mL and 2040 ng/mL | Mean plasma concentration of Compound I ([4]; 8 hours, mean, fasted dogs): 4060 ng/mL | Individual plasma concentration of Compound I ([4]; 24 hours, fasted dogs, listed as Compound I di-tosylate salt): 231 ng/mL and 1800 ng/mL and 530 ng/mL and 35.0 ng/mL and 30.0 ng/mL | Mean plasma concentration of Compound I ([4]; 24 hours, mean, fasted dogs): 648 ng/mL | Individual plasma concentration of Compound I ([4]; 36 hours, fasted dogs, listed as Compound I di-tosylate salt): BLQ (4×) and 273 ng/mL | Mean plasma concentration of Compound I ([4]; 36 hours, mean, fasted dogs): 273 ng/mL | Individual plasma concentration of Compound I ([4]; 48 hours, fasted dogs, listed as Compound I di-tosylate salt): BLQ (4×) and 21.5 ng/mL | Mean plasma concentration of Compound I ([4]; 48 hours, mean, fasted dogs): 21.5 ng/mL | AUC0-last ([4]; individual subjects): 62700 ng·h/mL and 129000 ng·h/mL and 113000 ng·h/mL and 9680 ng·h/mL and 47200 ng·h/mL | AUC0-rt ([4]; individual subjects): 64100 ng·h/mL and 129000 ng·h/mL and 116000 ng·h/mL and 9890 ng·h/mL and 47300 ng·h/mL | Cmax ([4]; individual subjects): 8810 ng/mL and 11200 ng/mL and 13400 ng/mL and 1600 ng/mL and 8110 ng/mL | tmax ([4]; individual subjects): 2.00 h and 1.00 h | AUC0-last ([4]; mean): 88000 ng·h/mL | AUC0-rt ([4]; mean): 89100 ng·h/mL | Cmax ([4]; mean): 10400 ng/mL | tmax ([4]; mean): 2.00 h | Individual plasma concentration of Compound I ([4]; Pre-dose, fasted pentagastrin-pretreated dogs): BLQ | Mean plasma concentration of Compound I ([4]; Pre-dose, mean, fasted dogs): BLQ

Compound: Cn1cc(-c2cn(-c3ccc(OC(F)(F)F)cc3)c(=O)c3ncn(C)c23)cn1.Cn1cc(-c2cn(-c3ccc(OC(F)(F)F)cc3)c(=O)c3ncn(C)c23)cn1.O=S(=O)(O)CCS(=O)(=O)O [hemi-edisylate]
reversibility of water adsorption within the timeframe of observation [5]: not reversible | Solubility (24 hours) [3, 7]: 990 µg/mL | pH (24 hrs) [3]: 1.48 | pH (1 hr) [3]: 1.42 | S 24 hrs [3]: 0.99 mg/mL | S 1 hr [3]: 1.09 mg/mL

Compound: Cn1cc(-c2cn(-c3ccc(OC(F)(F)F)cc3)c(=O)c3ncn(C)c23)cn1.Cn1cc(-c2cn(-c3ccc(OC(F)(F)F)cc3)c(=O)c3ncn(C)c23)cn1.O=S(=O)(O)c1cccc2c(S(=O)(=O)O)cccc12 [hemi-napadisylate]
reversibility of water adsorption within the timeframe of observation [5]: not reversible | Solubility (24 hours) [3, 7]: 1830 µg/mL | pH (24 hrs) [3]: 1.53 | pH (1 hr) [3]: 1.53 | S 24 hrs [3]: 1.83 mg/mL | S 1 hr [3]: 2.76 mg/mL

Compound: Cn1cc(-c2cn(-c3ccc(OC(F)(F)F)cc3)c(=O)c3ncn(C)c23)cn1.O=[N+]([O-])O [mono-nitrate amorphous]
pH (24 hrs) [3]: 1.9 | S 24 hrs [3]: 0.33 mg/mL

Compound: Cn1cc(-c2cn(-c3ccc(OC(F)(F)F)cc3)c(=O)c3ncn(C)c23)cn1.O=S(=O)(O)O [mono-sulfate amorphous]
Solubility (24 hours) [3, 8]: 840 µg/mL | pH (24 hrs) [3]: 1.4 | pH (1 hr) [3]: 1.2 | S 24 hrs [3]: 0.84 mg/mL

Compound: Cn1cc(-c2cn(-c3ccc(OC(F)(F)F)cc3)c(=O)c3ncn(C)c23)cn1.O=S(=O)(O)O [mono-sulfate crystalline]
thermal stability [6]: good thermal stability | Solubility (24 hours) [3, 7]: 1540 µg/mL | pH (24 hrs) [3]: 1.2 | pH (1 hr) [3]: 1.1 | S 24 hrs [3]: 1.54 mg/mL | S 1 hr [3]: 1.73 mg/mL
